This is an account of results in patent US10458996B1, “Methods for determining clinical response to TNF-alpha and/or JAK inhibitors in subjects with inflammatory diseases” (Beth Israel Deaconess Medical Center, Inc., priority 2016, dated 2019).

One assay deals with patients with CD and UC. The note with it: cited from earlier work.
Assay [1] relates to biopsy samples from patients with IBD. The assay can be described thus: Cytokine profiles of patient biopsy cultures in response to treatment with various agents (Example 2). The format is cell-based, human. Here is the method:
From each patient, intestinal mucosal biopsies were minced into several pieces and distributed in 8 wells of a 96-well plate in 250 μl of Dulbecco's Modified Eagle Medium (DMEM) supplemented with 10% FBS and antibiotic-antimycotic (Life Technologies, CA). Half of the cultures were treated with infliximab (REMICADE®; 0.5 mg/ml; Janssen Biotech, Inc, NJ) and the plate was incubated at 37° C. in a humidified chamber of 95% O2/5% CO2 for 18 hours. Culture supernatants were collected, filtered and stored at −80° C. […] Signal detection and analysis was performed by MAGPIX® (Luminex Corporation, TX).
[…] with 0.5 mg/ml infliximab (an anti-TNFα antibody; therapeutic agent), 100 μM tofacitinib (a Janus kinase (JAK) inhibitor) and an experimental drug (at 10 μM concentration) in accordance with the protocol described above. Following treatment, biopsy samples were obtained and analyzed for cytokine profiles using […].
Additional similar experiments were conducted for different patients using the same or different therapeutic agents, and the results are shown in FIG. 5D-5H.

With infliximab, the “sustained response rates beyond week 30” value in the assay with patients with CD and UC (IBD patients) is 30-40%. Also, the “Primary response rates to induction therapy” value with patients with CD and UC (randomized clinical trials of CD and UC) is “up to 60%”. For the same substance, the “biomarkers with reductions in level achieving statistical significance” value in assay [1] (0.5 mg/ml, cytokine responder group compared to non-responder group (FIG. 5A)) was “IL-12p40, IL-12p70, IL-13, IL-17A, IL-2, IL-4, IL-5, and IL-7”. Moreover, the TNFα levels result in assay [1] (0.5 mg/ml, responder and non-responder groups (FIG. 5A)) is “significantly attenuated in both groups”. The “ex vivo response of patient” value in assay [1] (patient ID 13-284 (FIG. 5D)) is on record as “ex vivo responder”. In addition, the “changes in cytokine profile” value in assay [1] (patient ID 13-284 (FIG. 5D), in addition to the direct target TNFα) was “three cytokine expression down-regulation”.
